Source: US20060009425A1, “Oral formulations of paricalcitol” (priority 2004, published 2006)

Assays:
[1] = Phase 3 TIW study, safety (Example 7); assay type: in vivo, human
Method: Safety: Safety was assessed through an evaluation of clinically meaningful hypercalcemia (2 consecutive calcium results >10.5 mg/dL). Additionally, safety was assessed by the incidence of adverse events, the change from baseline in chemistry, hematology and urinalysis laboratory variables, the change from baseline in subject vital signs, and progressive changes in renal function observed via changes in eGFR.
All randomized subjects who received at least 1 dose of study drug were used in safety analyses. The primary safety analysis was a comparison between the paricalcitol and placebo treatment groups of the proportion of subjects achieving clinically meaningful hypercalcemia (2 consecutive calcium measurements >10.5 mg/dL). This comparison was performed using a Fisher's exact test. Secondary safety analyses were performed comparing changes/percent changes from baseline between the paricalcitol and placebo treatment groups using a one-way ANOVA with treatment group as the factor for the following variables: hematology, complete chemistry, and urinalysis variables; 24-hour urine collections, eGFR, urinary calcium/creatinine ratio, cardiovascular markers, and vital signs. Secondary safety analyses also consisted of an analysis of “treatment-emergent” adverse events (i.e., adverse events with an onset date on or after the date the first dose of study drug was taken). Adverse events were summarized by body system and COSTART term according to the COSTART V adverse event-coding dictionary. Comparisons of the percentage of subjects experiencing an adverse event between the Oral paricalcitol and placebo treatment groups were performed using a Fisher's exact test.

[2] = Combined Phase 3 studies, safety (Examples 10-12); assay type: in vivo, human
Method: As discussed previously, Vitamin D deficiency is common in early stage CKD and is a major factor in the development of 2° HPT. However, few nephrologists prescribe calcitriol due to concerns of its calcemic, phosphatemic and calciuric effects and potential adverse effect on kidney function. In this example, a study was conducted that evaluated the safety of paricalcitol capsule in CKD stage 3-4 subjects with 2° HPT in 3 double-blind, placebo-controlled multicenter studies. A total of 220 subjects with iPTH ≧150 pg/mL, serum Ca 8-10 mg/dL and P≦5.2 mg/dL were randomized 1:1 and treated with paricalcitol capsule (N=107) or placebo (N=113) three times per week or daily for 24 weeks. Initial doses were based on iPTH levels at baseline (iPTH <500 pg/mL: 2 mcg TIW or 1 mcg QD; iPTH ≧500 pg/mL: 4 mcg TIW or 2 mcg QD). Subsequent dose adjustments (TIW: 2 mcg, QD: 1 mcg) were based on biweekly Ca, P and iPTH results, dose increases occurred every 4 weeks.
In this example, three double-blind, placebo-controlled, multicenter studies were conducted to evaluate the safety and efficacy of paricalcitol capsule in CKD stage 3-4 subjects. Major inclusion included eGFR (MDRD formula) 15-60 mL/min/1.73 m^2, iPTH ≧150 pg/mL. A total of 220 subjects across the 3 studies were randomized and received paricalcitol capsule or placebo three times weekly (TIW, N=145) or daily (QD, N=75) for 24 weeks. Mean baseline eGFR was 23.90 mL/min/1.73 m^2 in the paricalcitol group and 23.44 mL/min/1.73 m^2 in the placebo group. The initial dose was 2 mcg (TIW) or 1 mcg (QD) for baseline iPTH ≦500 pg/mL and 4 mcg (TIW) or 2 mcg (QD) for baseline iPTH >500 pg/mL. Doses were titrated based on serum Ca, P and iPTH results that were measured every 2 weeks, dose increases occurred every 4 weeks.
In this example, paricalcitol capsules were evaluated in 3 double-blind, placebo-controlled multicenter studies in CKD stage 3-4 subjects with 2° HPT; 2 of these studies were conducted with TIW dosing and 1 was done with QD dosing. Subjects with eGFR (MDRD formula) 15-60 ml/min/1.73 m^2, iPTH ≧150 pg/mL, serum Ca 8.0-10.0 mg/dL and PO4≦5.2 mg/dL were randomized 1:1 and treated with paricalcitol capsule or placebo for 24 weeks. A total of 145 subjects used TIW regimen (paricalcitol: 72; placebo: 73) and 75 subjects (paricalcitol: 35; placebo: 40) used QD regimen. After the initial doses, doses were titrated based on serum Ca, P and iPTH results that were measured every 2 weeks; dose increases occurred once every 4 weeks and decreases every 2 weeks. Dosing administrations are shown below in Table 18.

[3] = Bioavailability of capsule vs intravenous formulation, end-stage renal disease on hemodialysis (Example 3); assay type: in vivo; conditions: human, plasma
Method: Methodology: This was a Phase I, open-label, randomized, single-dose, two-period, crossover, nonfasting study. Subjects were randomized into two sequence groups of Regimens A and B. The two nonfasting study regimens were:
The intravenous formulation contained 2-10 micrograms/milliliter of paricalcitol, 30% (v/v) propylene glycol, 20% (v/v) ethanol and 50% (v/v) water.
Both regimens were administered at the end of a regular hemodialysis session on Study Day 1, 30 minutes after a breakfast was served. […] Fourteen subjects participated in the study. […] A washout interval of at least 7 days separated the doses of the two study periods. […] Plasma concentrations of paricalcitol were determined using a validated liquid chromatography—tandem mass spectrometric assay method at Abbott Laboratories, Abbott Park, Ill. […] The lower limit of quantification of paricalcitol was 0.02 ng/mL using a 0.6 mL plasma sample.
Pharmacokinetics: The pharmacokinetic parameter values of paricalcitol were estimated using noncompartmental methods. […] The volume of distribution for intravenous administration (Vdβ) and apparent volume of distribution for oral administration (Vdβ/F) value were calculated by dividing the clearance by β. […]

[4] = human, in vivo, 24 weeks
Method: Additionally, safety was assessed by the incidence of adverse events, the change from baseline in chemistry, hematology and urinalysis laboratory variables, the change from baseline in subject vital signs, and progressive changes in renal function observed via changes in eGFR.
All randomized subjects who received at least 1 dose of study drug were used in safety analyses. […] This comparison was performed using a Fisher's exact test. Secondary safety analyses were performed comparing changes/percent changes from baseline between the paricalcitol and placebo treatment groups using a one-way ANOVA with treatment group as the factor for the following variables: hematology, complete chemistry, and urinalysis variables; 24-hour urine collections, eGFR, urinary calcium/creatinine ratio, cardiovascular markers, and vital signs. Secondary safety analyses also consisted of an analysis of “treatment-emergent” adverse events (i.e., adverse events with an onset date on or after the date the first dose of study drug was taken). Adverse events were summarized by body system and COSTART term according to the COSTART V adverse event-coding dictionary. Comparisons of the percentage of subjects experiencing an adverse event between the paricalcitol and placebo treatment groups were performed using a Fisher's exact test.

[5] = system: biochemical bone activity markers; assay: Phase 3 TIW study, biochemical bone activity markers (Table D); assay type: in vivo, human; conditions: CKD Stage 3 and 4, TIW treated subjects (Table D)
Method: Serum bone-specific alkaline phosphate and serum osteocalcin are considered more sensitive bone markers to evaluate degree of bone remodeling than urinary bone marker. […] As shown in Examples 5-7 and Tables C (Example 5), Table D (Example 6) and Table E (Example 7), certain biochemical bone activity marker variables were analyzed in CKD Stage 3 and 4 subjects. These subjects received treatment with the oral formulations of the present invention or a placebo. The bone markers examined in these subjects were serum osteocalcin, serum bone-specific alkaline phosphatase, urinary pyridinoline, and deoxypyridinoline. If more than 1 biochemical bone activity marker measurement existed for a subject on a particular day, the higher measurement was considered to be that subject's biochemical bone activity marker measurement for that day. […] The Final Visit measurement was defined as the last biochemical bone activity marker measurement following the first dose of study drug.
The Week 11 Visit measurement was defined as the biochemical bone activity marker measurement on the day closest to the Week 11 scheduled visit, for which the possible measurements to choose from were those collected within 64 and 77 days following the first dose of study drug.
Changes from baseline to Week 11 Visit and to Final Visit in biochemical bone activity markers were compared between oral paricalcitol and placebo using an ANOVA with treatment as the factor on the combined Phase 3 all treated subject population (Table F). Also, the changes from baseline to Week 11 Visit and to Final Visit were compared between oral paricalcitol and placebo using an ANCOVA with baseline as the second factor on the combined Phase 3 all treated subject population (Table G).
During the Treatment Phase, subjects were to self-administer study drug 3 times weekly, on Monday, Wednesday and Friday, for a total of 24 weeks. The initial dose was 2 or 4 mcg (depending on baseline iPTH levels). Procedures to be performed during the Treatment Phase included vital signs, chemistry and hematology, urinary pyridinoline, urinary deoxypyridinoline, serum bone-specific alkaline phosphatase, serum osteocalcin, urinalysis, spot urine for calcium/creatinine ratio, and recording of adverse events and concurrent medications. Serum iPTH, calcium, phosphorus, and albumin were measured every 2 weeks. Dose adjustments were to be made according to these chemistry results for iPTH, calcium, and phosphorus. Doses may have been increased in 2 mcg increments every 4 weeks.

[6] = subjects who completed 24 weeks of treatment
[7] = 3 Phase 3 studies, TIW or daily for 24 weeks, CKD stage 3-4
[8] = N = 106, 3 Phase 3 studies combined

C[C@H](/C=C/[C@H](C)C(C)(C)O)[C@H]1CC[C@H]2/C(=C/C=C3C[C@@H](O)C[C@H](O)C3)CCC[C@]12C [Paricalcitol, 19-nor-1α,3β,25-trihydroxy-9,10-secoergosta-5(Z); 7(E),22(E)-triene]
safety and tolerability ([1]; CKD (Stages 3 and 4) subjects): safe and well tolerated
adverse events considered not related to study drug administration ([1]; TIW, 24 weeks): 81%
adverse events mild or moderate in severity ([1]; TIW, 24 weeks): 96%
subjects with treatment-emergent adverse events ([1]; TIW, 24 weeks): 76%
mean calcium values, range over scheduled visits ([1]; Treatment Phase): 9.36 to 9.62 mg/dL
subjects reporting serious adverse events ([1]; Treatment and Follow-Up Phases): 6 subjects
adverse event incidence: diarrhea ([1]; in vivo): 9%
adverse event incidence: dizziness ([1]; in vivo): 12%
adverse event incidence: edema ([1]; in vivo): 9%
adverse event incidence: hypotension ([1]; in vivo): 12%
adverse event incidence: uremia ([1]; in vivo): 12%
serum calcium, mean change from baseline to Last On-Treatment Visit ([1]; in vivo): 0.19 mg/dL
subjects terminated prematurely due to adverse events ([1]; in vivo): 1 subjects
subjects who developed clinically meaningful hypercalcemia (at least 2 consecutive calcium values >10.5 mg/dL) ([1]; in vivo): 1/33
eGFR, mean percent change from baseline to Final Visit [1, 6]: −16.61%
subjects who experienced hypercalcemia (2 consecutive Ca >10.5 mg/dL) ([2]; 2/106, 3 Phase 3 studies combined): 2%
adverse event incidence: pharyngitis ([2]; 3 Phase 3 studies combined): 10%
treatment-emergent adverse events reporting ([2]; 3 Phase 3 studies combined): 82%
Urine Calcium, Mean Change from Baseline (SE) [2, 7]: 2.4 (3.04) mg/24 hours
Urine Calcium, Mean Final Value [2, 7]: 42.0 mg/24 hours
Urine Phosphorous, Mean Change from Baseline (SE) [2, 7]: −2.1 (39.72) mg/24 hours
Urine Phosphorous, Mean Final Value [2, 7]: 670.4 mg/24 hours
safety and tolerability ([2]; CKD stage 3-4 subjects, 3 Phase 3 studies): safe and well tolerated
Elevated Ca × P (2 consecutive Ca × P > 55 mg^2/dL^2), subjects n (%) [2, 8]: 13 (12%)
Hypercalcemia (2 consecutive Ca > 10.5 mg/dL), subjects n (%) [2, 8]: 2 (2%)
Hyperphosphatemia (2 consecutive P > 5.5 mg/dL), subjects n (%) [2, 8]: 11 (10%)
Elevated Ca × P (2 consecutive Ca × P > 55 mg^2/dL^2), subjects n (%) ([2]; QD regimen): 5 (14%)
Hypercalcemia (2 consecutive Ca > 10.5 mg/dL), subjects n (%) ([2]; QD regimen): 0 (%)
Hyperphosphatemia (2 consecutive P > 5.5 mg/dL), subjects n (%) ([2]; QD regimen): 5 (14%)
Elevated Ca × P (2 consecutive Ca × P > 55 mg^2/dL^2), subjects n (%) ([2]; TIW regimen): 8 (12%)
Hypercalcemia (2 consecutive Ca > 10.5 mg/dL), subjects n (%) ([2]; TIW regimen): 2 (3%)
Hyperphosphatemia (2 consecutive P > 5.5 mg/dL), subjects n (%) ([2]; TIW regimen): 6 (9%)
eGFR (MDRD formula), Mean Change from Baseline [2, 6]: −2.5 (0.526) mL/min/1.73 m^2
eGFR (MDRD formula), Mean Final Value [2, 6]: 21.4 mL/min/1.73 m^2
eGFR (MDRD formula), Mean Percent Change from Baseline (SE) [2, 6]: −10.4 (2.268)
half-life ([3]; 0.24 ug/kg, 0.24 μg/kg single dose, hemodialysis, harmonic mean ± pseudo-standard deviation): ~14 h
bioavailability ([3]; 0.24 μg/kg, single oral dose, nonfasting, end-stage renal disease on hemodialysis, read-out: estimated absolute bioavailability): 78.8%
adverse event incidence: viral infection [4]: 10%
Serum Bone-Specific Alkaline Phosphatase, Change from Baseline (SE) to Final [5]: −8.179 (1.2010) mcg/L
Serum Bone-Specific Alkaline Phosphatase, Change from Baseline (SE) to Week 11 [5]: −5.078 (0.9420) mcg/L
Serum Osteocalcin, Change from Baseline (SE) to Final [5]: −18.92 (3.973) ng/mL
Serum Osteocalcin, Change from Baseline (SE) to Week 11 [5]: −6.96 (3.259) ng/mL
Urinary Deoxypyridinoline, Change from Baseline (SE) to Final [5]: −0.0182 (0.0062) nmol/mg Creat
Urinary Deoxypyridinoline, Change from Baseline (SE) to Week 11 [5]: −0.0144 (0.00813) nmol/mg Creat
Urinary Pyridinoline, Change from Baseline (SE) to Final [5]: −7.11 (2.828) nmol/mmol Creat
Urinary Pyridinoline, Change from Baseline (SE) to Week 11 [5]: −4.87 (3.725) nmol/mmol Creat
